Measurements taken from patent US8772446B2, “Bifunctional chelating agents” (Nordion (Canada) Inc., priority 2010, dated 2014).
Read-outs that look alike come from different tables or passages of the source.

Assays:
[1] = biological target: T1, human apo-transferrin (Homo sapiens, UniProt P02787); settings: 40 µM
Method: (§1) FIG. 13 illustrates stacked labelling traces of ^67Ga(dedpa)^+ of 2 h stability experiment against apo-transferrin (gradient: A: NaOAc buffer, pH 4.5, B: MeOH. 0-100% B linear gradient 20 min).

[2] = biological target: T1, human apo-transferrin; experiment: ^67Ga complex stability: 2-h competition with excess human apo-transferrin, HPLC; settings: for Stability in competition with excess human apo-transferrin, 10 min / Stability in competition with excess human apo-transferrin, 1 h / Stability in competition with excess human apo-transferrin, 2 h: ^67Ga complex, 37° C
Method: as §1

[3] = Solution thermodynamics: formation constants (log KML) and pM of Ga(III) complexes, potentiometric titration; format: physicochemical; settings: Calculated for 10 μM total ligand and 1 μM total metal at pH 7.4 and 25° C
Method: A more relevant indicator of the extent to which a metal complex is formed in solution is given by pM (−log free M) which considers the influence of ligand basicity and chelate hydrolysis.
Carbonate-free solutions of the titrant, NaOH, were prepared by dilution of 50% solution (Acros Organics) with freshly boiled MQ water under a stream of purified nitrogen gas. The solution was standardized with potassium acid phthalate and the extent of carbonate accumulation was periodically checked by titration with a standard hydrochloric acid solution and determination of the corresponding Gran titration plot.^47 Gallium ion solutions were prepared by dilution of the appropriate atomic absorption (AA) standard. The exact amount of acid present in the gallium standard was determined by titration of an equimolar solution of Ga and Na2H2EDTA. The amount of acid present was determined by Gran's method.^47
Data were collected in triplicate using PC Control (Version 6.0.91, Metrohm). The titration apparatus consisted of a 10 mL water jacketed glass vessel maintained at 25.0±0.1° C. (Julabo waterbath). Prior to and during the course of the titration, a blanket of nitrogen, passed through 10% NaOH to exclude any CO2, was maintained over the sample solution. The ionic strength was maintained at 0.16 M using NaCl. Prior to each potentiometric equilibrium study, the electrode was calibrated using standard HCl solutions. Calibration data were analysed by standard computer treatment provided within the program MacCalib to obtain the calibration parameters E0 and pKw.
As the degree of formation of Ga(III) complexes at low pH (<2) was too high for the determination of stability constants by use of direct potentiometry, the ligand-ligand competition method using Na2H2EDTA was also performed.

[4] = Ga(III) complex, cited from earlier work; for log KML: literature value
[5] = log P; format: physicochemical
[6] = biological target: T1, human apo-transferrin; experiment: ^111In-chelate stability: binding competition with human apo-transferrin at ambient temperature, PD-10 columns; format: in vitro ADME; set-up: Human serum apo-transferrin was purchased from Sigma-Aldrich; purchased Sigma-Aldrich; host or cells: human serum
Method: Human apo-transferrin (Aldrich) was suspended in 10 mM NaHCO3 buffer at pH 6.9. Labeling solutions were prepared with chelators and ^111In in 10 mM NaHCO3 buffer at pH 5.5, and allowed to sit for 20-30 minutes. Quantitative formation of ^111In-chelate complexes was confirmed by HPLC (same methods as in Example 2). ^111In(DOTA) was formed using a microwave reactor (Biotage) at 80° C. for 10 minutes to ensure quantitative labeling. Competition experiments for all 8 chelators studied (Table 3) were performed with preformed ^111In-chelate complexes at a concentration of 36.5 mM, and with human apo-transferrin at a concentration of ˜10 mM. Samples were left to sit in sterile scintillation vials for 1 hour and 24 hours at ambient temperature. Chelate stability was determined using size-exclusion ‘desalting’ columns (GE Healthcare PD-10 pre-packed columns, Sephadex G-25 M). All compounds smaller than ˜5000 Daltons were retained by the PD-10 columns, and all transferrin was eluted. PD-10 columns were conditioned by discarding the contained bactericidal solution and eluting 20 mL of phosphate buffered saline (PBS, purchased from BioWhittaker). For analysis, the competition experiment solutions were diluted to 2.5 mL with PBS, measured with a Capintec scintillation counter, loaded onto PD-10 columns, and allowed to elute into a waste container fully. An additional 3.5 mL of PBS was then loaded onto the columns and collected into a sterile scintillation vial. PD-10 columns were discarded after a single use. The vial containing the eluent was then measured with a Capintec scintillation counter to determine the amount of ^111In bound to transferrin. The difference in radioactivity between the competition experiment solutions and the eluent from the PD-10 columns was used to determine the percent ^111In bound to transferrin, and therefore the percent stability of the complexes.

T1 sequence (P02787 20-698): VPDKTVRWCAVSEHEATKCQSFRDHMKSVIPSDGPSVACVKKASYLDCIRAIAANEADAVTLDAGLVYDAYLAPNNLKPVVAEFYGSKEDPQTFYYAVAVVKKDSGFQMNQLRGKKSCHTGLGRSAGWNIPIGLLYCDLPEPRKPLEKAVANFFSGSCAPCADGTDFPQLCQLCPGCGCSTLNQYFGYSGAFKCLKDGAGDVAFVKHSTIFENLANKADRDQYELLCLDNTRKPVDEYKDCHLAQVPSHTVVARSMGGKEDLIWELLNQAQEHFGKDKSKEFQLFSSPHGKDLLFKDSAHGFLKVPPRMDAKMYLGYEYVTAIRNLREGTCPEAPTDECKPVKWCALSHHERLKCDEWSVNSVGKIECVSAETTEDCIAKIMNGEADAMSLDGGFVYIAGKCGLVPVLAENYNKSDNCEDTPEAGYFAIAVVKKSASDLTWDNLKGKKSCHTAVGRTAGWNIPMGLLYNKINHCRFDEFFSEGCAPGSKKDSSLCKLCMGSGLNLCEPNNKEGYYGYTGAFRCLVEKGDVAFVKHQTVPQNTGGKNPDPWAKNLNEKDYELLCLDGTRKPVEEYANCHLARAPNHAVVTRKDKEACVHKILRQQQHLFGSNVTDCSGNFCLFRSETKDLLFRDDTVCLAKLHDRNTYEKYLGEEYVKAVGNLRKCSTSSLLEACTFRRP

## O=C(O)c1cccc(CN(CCN(Cc2ccc([N+](=O)[O-])cc2)Cc2cccc(C(=O)O)n2)Cc2ccc([N+](=O)[O-])cc2)n1 [Compound 66]
[1]; 10 min
  Stability in competition with excess human apo-transferrin, 10 min: 88%
[1]; 1 h
  Stability in competition with excess human apo-transferrin, 1 h: 69%
[1]; 2 h
  Stability in competition with excess human apo-transferrin, 2 h: 51%

## O=C(O)c1cccc(CNCCNCc2cccc(C(=O)O)n2)n1 [Compound H2dedpa]
[2]; challenge experiment
  Extraction of gallium from transferrin (in words): capable of extracting gallium from transferrin
[3]
  pM: 27.4

## O=C(O)CN1CCN(CC(=O)O)CCN(CC(=O)O)CCN(CC(=O)O)CC1 [DOTA, 1,4,7,10-tetraazacyclododecane-1,4,7,10-tetraacetic acid, reference compound]
[3]
  pM: 18.5
[4]
  log KML: 21.33

## O=C(O)CN(CCN(CC(=O)O)CC(=O)O)CC(=O)O [EDTA, reference compound]
[3]
  pM: 18.3
[4]
  log KML: 21.7

## COc1cc(CN(CCN(Cc2cc(OC)cc(OC)c2)Cc2cccc(C(=O)[O-])n2)Cc2cccc(C(=O)[O-])n2)cc(OC)c1.O=[N+]([O-])[O-].[Ga+3] [Ga(88)NO3]
[5]
  log P: −0.32
[2]
  Stability in competition with excess human apo-transferrin, 10 min: 76%
  Stability in competition with excess human apo-transferrin, 1 h: 59%
  Stability in competition with excess human apo-transferrin, 2 h: 52%

## COc1cc(OC)c(CN(CCN(Cc2cccc(C(=O)[O-])n2)Cc2c(OC)cc(OC)cc2OC)Cc2cccc(C(=O)[O-])n2)c(OC)c1.O=[N+]([O-])[O-].[Ga+3] [Ga(91a)NO3]
[5]
  log P: −0.03
[2]
  Stability in competition with excess human apo-transferrin, 10 min: 86%
  Stability in competition with excess human apo-transferrin, 1 h: 85%
  Stability in competition with excess human apo-transferrin, 2 h: 82%

## COc1cc(CN(CCN(Cc2cc(OC)cc(C(=O)[O-])n2)Cc2c(OC)cc(OC)cc2OC)Cc2c(OC)cc(OC)cc2OC)nc(C(=O)[O-])c1.O=[N+]([O-])[O-].[Ga+3] [Ga(91b)NO3]
[5]
  log P: 0.66
[2]
  Stability in competition with excess human apo-transferrin, 10 min: 97%
  Stability in competition with excess human apo-transferrin, 1 h: 96%
  Stability in competition with excess human apo-transferrin, 2 h: 96%

## CCOc1cc(OCC)c(CN(CCN(Cc2cccc(C(=O)[O-])n2)Cc2c(OCC)cc(OCC)cc2OCC)Cc2cccc(C(=O)[O-])n2)c(OCC)c1.O=[N+]([O-])[O-].[Ga+3] [Ga(99a)NO3]
[2]
  Stability in competition with excess human apo-transferrin, 10 min: 95%
  Stability in competition with excess human apo-transferrin, 1 h: 92%
  Stability in competition with excess human apo-transferrin, 2 h: 91%

## CCOc1cc(OCC)c(CN(CCN(Cc2cc(OC)cc(C(=O)[O-])n2)Cc2c(OCC)cc(OCC)cc2OCC)Cc2cc(OC)cc(C(=O)[O-])n2)c(OCC)c1.O=[N+]([O-])[O-].[Ga+3] [Ga(99b)NO3]
[5]
  log P: 1.16
[2]
  Stability in competition with excess human apo-transferrin, 10 min: 94%
  Stability in competition with excess human apo-transferrin, 1 h: 93%
  Stability in competition with excess human apo-transferrin, 2 h: 93%

## O=C(O)CN1CCN(CC(=O)O)CCN(CC(=O)O)CC1 [NOTA, 1,4,7-triazacyclononane-1,4,7-triacetic acid, reference compound]
[3]
  pM: 27.9
[4]
  log KML: 30.98

## O=C(O)c1cccc(CNCCNCc2cccc(C(=O)O)n2)n1 [^111In(1), metal not drawn]
[6]
  % ^111In-chelate stability at 1 hour: 98%
  % ^111In-chelate stability, 24 hour stability: 43%

## O=C(O)CN(CCN(CC(=O)O)Cc1cccc(C(=O)O)n1)Cc1cccc(C(=O)O)n1 [^111In(2), metal not drawn]
[6]
  % ^111In-chelate stability at 1 hour: 90%
  % ^111In-chelate stability, 24 hour stability: 91%

## O=C(O)c1cccc(CNCCCNCc2cccc(C(=O)O)n2)n1 [^111In(3), metal not drawn]
[6]
  % ^111In-chelate stability at 1 hour: 91%
  % ^111In-chelate stability, 24 hour stability: 85%

## O=C(O)CN(CCCN(CC(=O)O)Cc1cccc(C(=O)O)n1)Cc1cccc(C(=O)O)n1 [^111In(4), metal not drawn]
[6]
  % ^111In-chelate stability at 1 hour: 93%
  % ^111In-chelate stability, 24 hour stability: 91%

## O=C(O)c1cccc(CNCCN(CCNCc2cccc(C(=O)O)n2)Cc2cccc(C(=O)O)n2)n1 [^111In(5), metal not drawn]
[6]
  % ^111In-chelate stability, 24 hour stability: 88%

## O=C(O)CN(CCN(CC(=O)O)Cc1cccc(C(=O)O)n1)CCN(CC(=O)O)Cc1cccc(C(=O)O)n1 [^111In(6), metal not drawn]
[6]
  % ^111In-chelate stability at 1 hour: 89%
  % ^111In-chelate stability, 24 hour stability: 91%

## O=C([O-])CN1CCN(CC(=O)[O-])CCN(CC(=O)[O-])CCN(CC(=O)[O-])CC1.[111In+3] [^111In(DOTA), reference compound]
[6]
  % ^111In-chelate stability, 24 hour stability: 81%

## O=C([O-])CN(CCN(CC(=O)[O-])CC(=O)[O-])CCN(CC(=O)[O-])CC(=O)[O-].[111In+3] [^111In(DTPA), reference compound]
[6]
  % ^111In-chelate stability at 1 hour: 86%
  % ^111In-chelate stability, 24 hour stability: 88%

## Transferrin: iron transport protein found in high concentrations in the blood that has an affinity for Ga
[3]
  pM: 21.3
[4]; conditional constant from reference
  log KML (conditional constant): 20.3
